The values below come from US6376511B2, “8-aminoquinolines” (The University of Mississippi, priority 1999, dated 2002).

The conditions of data set [1]: mice; cited from earlier work.
In another data set the test system is Pneumocystis carinii. Put plainly: Anti-Pneumocystis carinii test (induced Pneumocystis carinii infection in immunosuppressed mice), oral. Type of data set: in vivo. The settings on record: mice (Table 8).
The conditions of data set [2]: rhesus monkey; cited from earlier work.

In the case of `COc1cc(NC(C)CCCN)c2ncccc2c1` (single isomer, unassigned; (+)) [(+) Primaquine, reference compound], the “toxicity relative to the l-form” value in data set [1] was “approximately 4 times”. The “Number of animals with organism after treatment/Number of animals treated, Giesma Stain” value is on record as 10/10 with Pneumocystis carinii (oral 2 mg/kg/day (x21)); 7/10 in the data set on Pneumocystis carinii (oral 5 mg/kg/day (x21), listed as (+) Enantiomer, 5 mg/kg/day); 1/10 with Pneumocystis carinii (oral 10 mg/kg/day (x21), listed as (+) Enantiomer, 10 mg/kg/day).
On to `COc1cc(NC(C)CCCN)c2ncccc2c1` (single isomer, unassigned; (-)) [(−) Primaquine, reference compound], for which the “toxicity relative to d-primaquine” value in data set [2] was 3 to 5 times. Further, in data set [2], the “toxicity relative to racemic primaquine” value is “at least twice as toxic”. For the same compound, the “Number of animals with organism after treatment/Number of animals treated, Giesma Stain” value with Pneumocystis carinii (oral 5 mg/kg/day (x21), listed as (−) Enantiomer, 5 mg/kg/day) was 10/10; in the data set on Pneumocystis carinii (oral 10 mg/kg/day (x21), listed as (−) Enantiomer, 10 mg/kg/day), 10/10.
